{"source": "patent US7988985B2", "about": "“Pest repellent compositions and methods” (priority 2008, dated 2011)", "origin": "cited, not measured here", "key": {"[1]": {"system": "biting-insect", "details": "Low-strength formulations containing 12.5% DEET"}, "[2]": {"system": "blackflies (Simulium spp.)", "details": "High-strength formulations containing up to 100% DEET"}, "[3]": {"system": "mosquitoes (e.g., Anopheles, Culex pipiens, and Aeges aegypti)", "details": "High-strength formulations containing up to 100% DEET, 95%+ effective"}}, "data": [{"smiles": "CCN(CC)C(=O)c1cccc(C)c1", "note": "[DEET, N,N,-diethyl-m-toluamide]", "values": [{"measurement": "effective (repellent effectiveness)", "setting": "[1]", "value": "60-75%"}, {"measurement": "effective (repellent effectiveness)", "setting": "[2]", "value": "≥ 95", "unit": "%"}, {"measurement": "duration of effectiveness", "setting": "[2]; 95%+ effective", "value": "over 4 hours"}, {"measurement": "duration of effectiveness", "setting": "[3]", "value": "10 to 12", "unit": "h"}]}]}
